Activity calls are given as the source filed them. The rule behind the calls is not given here.
What was measured:
[1] = biological target: T1, Kinesin-like protein KIF11 (Homo sapiens, UniProt P52732); test: Inhibition of His-tagged KSP motor domain (1 to 369) (unknown origin) assessed as inhibition of microtubule-stimulated KSP ATPase activity preincuabted for 30 mins followed by ATP addition measured after 15 mins by Kinase-Glo assay
T1 sequence (P52732 whole entry): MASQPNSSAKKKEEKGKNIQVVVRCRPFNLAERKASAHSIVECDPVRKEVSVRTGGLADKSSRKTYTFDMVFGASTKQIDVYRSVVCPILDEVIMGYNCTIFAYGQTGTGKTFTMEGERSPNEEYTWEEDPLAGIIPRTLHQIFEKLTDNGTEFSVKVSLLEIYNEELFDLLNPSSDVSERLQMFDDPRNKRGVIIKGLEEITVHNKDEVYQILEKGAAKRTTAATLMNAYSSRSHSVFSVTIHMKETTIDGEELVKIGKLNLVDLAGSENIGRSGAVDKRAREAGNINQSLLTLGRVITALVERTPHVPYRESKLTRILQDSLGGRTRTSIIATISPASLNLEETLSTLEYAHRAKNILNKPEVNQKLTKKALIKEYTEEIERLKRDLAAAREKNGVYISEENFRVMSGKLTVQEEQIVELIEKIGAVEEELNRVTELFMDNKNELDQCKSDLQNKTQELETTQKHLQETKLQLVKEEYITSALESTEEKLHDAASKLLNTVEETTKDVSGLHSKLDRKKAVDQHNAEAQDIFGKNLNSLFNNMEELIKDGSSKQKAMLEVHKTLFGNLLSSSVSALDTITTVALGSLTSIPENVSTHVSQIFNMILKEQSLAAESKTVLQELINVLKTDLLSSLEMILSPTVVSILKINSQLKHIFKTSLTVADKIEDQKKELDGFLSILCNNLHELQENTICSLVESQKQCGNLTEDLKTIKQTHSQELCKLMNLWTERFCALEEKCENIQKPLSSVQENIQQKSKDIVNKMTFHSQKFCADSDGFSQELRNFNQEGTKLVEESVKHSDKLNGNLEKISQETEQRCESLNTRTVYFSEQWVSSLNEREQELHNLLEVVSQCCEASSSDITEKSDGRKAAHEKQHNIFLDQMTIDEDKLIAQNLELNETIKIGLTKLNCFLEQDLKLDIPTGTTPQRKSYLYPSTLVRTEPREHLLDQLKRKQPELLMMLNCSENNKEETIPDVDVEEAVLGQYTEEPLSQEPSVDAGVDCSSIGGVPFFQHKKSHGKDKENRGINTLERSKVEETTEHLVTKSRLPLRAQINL

HCT-116 [2] = test: Growth inhibition of human HCT116 cells after 72 hrs by MTS assay; type: functional, cell-based; conditions: HCT-116, 72 h
Mus musculus [3] = test: Toxicity in athymic nude BALB/cAJcL mouse xenografted with HCT116 cells assessed as mortality at 25 mg/kg, iv administered on days 1,3,5,8,10 and 12; type: organism-based, HCT-116; conditions: in vivo
Mus musculus [4] = test: Toxicity in athymic nude BALB/cAJcL mouse xenografted with HCT116 cells assessed as body weight loss at 25 mg/kg, iv administered on days 1,3,5,8,10 and 12 relative to vehicle-treated control; type: organism-based, HCT-116; conditions: in vivo
HCT-116 [5] = test: Antitumor activity against human HCT116 cells xenografted in athymic nude BALB/cAJcL mouse assessed as inhibition of tumor growth at 25 mg/kg, iv administered on days 1,3,5,8,10 and 12 measured on day 15; type: functional
Mus musculus [6] = test: Toxicity in athymic nude BALB/cAJcL mouse xenografted with HCT116 cells assessed as mortality at 75 mg/kg, iv administered on days 1,3,5,8,10 and 12; type: organism-based, HCT-116; conditions: in vivo
HCT-116 [7] = test: Antitumor activity against human HCT116 cells xenografted in athymic nude BALB/cAJcL mouse assessed as inhibition of tumor growth at 75 mg/kg, iv administered on days 1,3,5,8,10 and 12 measured on day 15; type: functional
HCT-116 [8] = test: Antitumor activity against human HCT116 cells xenografted in athymic nude BALB/cAJcL mouse assessed as inhibition of tumor growth at 150 mg/kg, iv administered on days 1,3,5,8,10 and 12 measured on day 15; type: functional
[9] = biological target: T2, Kinesin-like protein KIF11 (Homo sapiens) (UniProt P52732)
T2 sequence (whole entry): T1 sequence (P52732 whole entry)
Description: Binding affinity to KSP motor domain (unknown origin) assessed as change in melting temperature at 100 uM by differential scanning fluorimetry in presence of 1 mM ATP

HCT-116 [10] = test: Antitumor activity against human HCT116 cells xenografted in iv dosed athymic nude BALB/cAJcL mouse assessed as inhibition of tumor growth drug administered on days 1,3,5,8,10 and 12 measured on day 15; type: functional, organism-based
Mus musculus [11] = test: Toxicity in athymic nude BALB/cAJcL mouse xenografted with HCT116 cells assessed as mortality at 150 mg/kg, iv administered on days 1,3,5,8,10 and 12; type: organism-based, HCT-116; conditions: in vivo
HeLa [12] = test: Cell cycle arrest at mitotic phase in human HeLa cells assessed as mitotic index after 6 hrs; type: functional
HCT-116 [13] = test: Antitumor activity against human HCT116 cells xenografted in athymic nude BALB/cAJcL mouse assessed as inhibition of tumor growth at 10 mg/kg, iv administered on days 1,3,5,8,10 and 12 measured on day 15; type: functional
HeLa [14] = test: Cell cycle arrest at mitotic phase in human HeLa cells assessed as formation of monopolar spindles at 40 nM after 6 hrs by DAPI staining-based microscopic analysis; type: functional
Mus musculus [15] = test: Toxicity in athymic nude BALB/cAJcL mouse xenografted with HCT116 cells assessed as mortality at 10 mg/kg, iv administered on days 1,3,5,8,10 and 12; type: organism-based, HCT-116; conditions: in vivo

**Q.** For Cc1ccccc1C1(SC[C@H](N)C(=O)O)c2ccccc2CCc2ccccc21, which IC50 [1] is on record?
**A.** 7800 nM

**Q.** And the IC50 (HCT-116 [2])?
**A.** 4590 nM

**Q.** Which IC50 [1] does the source give for N[C@@H](CSC1(c2cccc(Cl)c2)c2ccccc2CCc2ccccc21)C(=O)O here?
**A.** 160 nM

**Q.** And the IC50 (HCT-116 [2])?
**A.** 637 nM

**Q.** How did the IC50 [1] turn out when N[C@@H](CSC1(c2ccc(Cl)cc2)c2ccccc2CCc2ccccc21)C(=O)O was run?
**A.** 11 nM

**Q.** And the Activity (Mus musculus [3])?
**A.** Non-toxic

**Q.** And the Activity (Mus musculus [4])?
**A.** Toxic

**Q.** What about the T/C (HCT-116 [5]) of the same compound?
**A.** 11%

**Q.** What about the IC50 (HCT-116 [2]) of the same compound?
**A.** 41 nM

**Q.** With N[C@@H](CSC(c1ccccc1)(c1ccccc1)c1ccccc1)C(=O)O [S-TRITYL-L-CYSTEINE] as the compound, how does the IC50 (HCT-116 [2]) read?
**A.** 910 nM

**Q.** What does the source list for N[C@@H](CSC1(c2ccccc2)c2ccccc2CCc2ccccc21)C(=O)O?
**A.** Activity (Mus musculus [6]): Non-toxic; IC50 [1]: 209 nM; T/C (HCT-116 [7]): 43%; Activity (Mus musculus [3]): Non-toxic; T/C (HCT-116 [8]): 23%; Activity (Mus musculus [4]): Toxic; ΔTm [9]: 8 °C; T/C (HCT-116 [5]): 62%; IC50 (HCT-116 [2]): 325 nM; TGI (HCT-116 [10]): Dose-dependent effect; Activity (Mus musculus [11]): Non-toxic

**Q.** Which IC50 [1] does the source give for N[C@@H](CSC1(c2ccc(Cl)cc2)c2ccccc2C=Cc2ccccc21)C(=O)O here?
**A.** 12 nM

**Q.** And the IC50 (HCT-116 [2])?
**A.** 3.9 nM

**Q.** For N[C@@H](CSC1(c2ccc(-c3ccccc3)cc2)c2ccccc2C=Cc2ccccc21)C(=O)O, which IC50 [1] is on record?
**A.** 1400 nM

**Q.** And the IC50 (HCT-116 [2])?
**A.** 395 nM

**Q.** With N[C@@H](CSC1(c2ccc(C(F)(F)F)cc2)c2ccccc2COc2ccccc21)C(=O)O (mixture of isomers) as the compound, how does the IC50 [1] read?
**A.** 75 nM

**Q.** And the IC50 (HCT-116 [2])?
**A.** 76 nM

**Q.** What does the source list for N[C@@H](CSC1(c2ccc(C(F)(F)F)cc2)c2ccccc2C=Cc2ccccc21)C(=O)O?
**A.** MI50 (HeLa [12]): 12 nM; T/C (HCT-116 [13]): 31%; IC50 [1]: 36 nM; Activity (Mus musculus [3]): Non-toxic; Activity (HeLa [14]): Active; T/C (HCT-116 [5]): 12%; IC50 (HCT-116 [2]): 5 nM; TGI (HCT-116 [10]): Dose-dependent effect; Activity (Mus musculus [15]): Non-toxic

**Q.** Which results are given for N[C@@H](CSC1(c2ccc(C(F)(F)F)cc2)c2ccccc2CSc2ccccc21)C(=O)O (mixture of isomers)?
**A.** IC50 [1]: 61 nM; IC50 (HCT-116 [2]): 15 nM

**Q.** Which results are given for N[C@@H](CSC1(c2cccc(C(F)(F)F)c2)c2ccccc2CCc2ccccc21)C(=O)O?
**A.** IC50 [1]: 238 nM; IC50 (HCT-116 [2]): 123 nM

**Q.** For N[C@@H](CSC1(c2ccc(C(F)(F)F)cc2)c2ccccc2Sc2ccccc21)C(=O)O, which IC50 [1] is on record?
**A.** > 20000 nM

**Q.** And the IC50 (HCT-116 [2])?
**A.** > 10000 nM

**Q.** What does the source list for N[C@@H](CSC1(c2ccc(Oc3ccccc3)cc2)c2ccccc2CCc2ccccc21)C(=O)O?
**A.** IC50 [1]: 306 nM; IC50 (HCT-116 [2]): 291 nM

**Q.** Which IC50 [1] does the source give for CC(C)(C)c1ccc(C2(SC[C@H](N)C(=O)O)c3ccccc3CCc3ccccc32)cc1 here?
**A.** 301 nM

**Q.** What about the IC50 (HCT-116 [2]) of the same compound?
**A.** 234 nM

**Q.** How did the IC50 [1] turn out when CON(C)C(=O)N1N=C(c2cc(F)ccc2F)S[C@@]1(CCCN)c1ccccc1 [FILANESIB] was run?
**A.** 18 nM

**Q.** What about the IC50 (HCT-116 [2]) of the same compound?
**A.** 0.7 nM

**Q.** For Cc1ccc(C2(SC[C@H](N)C(=O)O)c3ccccc3CCc3ccccc32)cc1, which IC50 [1] is on record?
**A.** 9.3 nM

**Q.** What about the Activity (Mus musculus [3]) of the same compound?
**A.** Non-toxic

**Q.** What about the T/C (HCT-116 [5]) of the same compound?
**A.** 19%

**Q.** What about the IC50 (HCT-116 [2]) of the same compound?
**A.** 25 nM

**Q.** Which results are given for COc1ccc(C2(SC[C@H](N)C(=O)O)c3ccccc3C=Cc3ccccc32)cc1?
**A.** IC50 [1]: 8.6 nM; ΔTm [9]: 12.5 °C; IC50 (HCT-116 [2]): 2.6 nM

**Q.** How did the IC50 (HCT-116 [2]) turn out when Cc1ccc(C(=O)N(CCCN)[C@@H](c2nc3cc(Cl)ccc3c(=O)n2Cc2ccccc2)C(C)C)cc1 [ISPINESIB] was run?
**A.** 1.1 nM

**Q.** COc1ccc(C(SC[C@H](N)C(=O)O)(c2ccccc2)c2ccccc2)cc1 was tested. Which ΔTm [9] did it give?
**A.** 9 °C

**Q.** What about the IC50 (HCT-116 [2]) of the same compound?
**A.** 213 nM

**Q.** Which IC50 [1] does the source give for N[C@@H](CSC(c1ccccc1)(c1ccccc1)c1ccc(C(F)(F)F)cc1)C(=O)O here?
**A.** 262 nM

**Q.** And the IC50 (HCT-116 [2])?
**A.** 216 nM

**Q.** Which IC50 [1] does the source give for Cc1ccc(C2(SC[C@H](N)C(=O)O)c3ccccc3C=Cc3ccccc32)cc1 here?
**A.** 14 nM

**Q.** And the IC50 (HCT-116 [2])?
**A.** 3.4 nM

**Q.** Which results are given for N[C@@H](CSC1(c2ccccc2)c2ccccc2CCSc2ccccc21)C(=O)O (mixture of isomers)?
**A.** IC50 [1]: > 20000 nM; IC50 (HCT-116 [2]): > 10000 nM

**Q.** With N[C@@H](CSC1(c2ccc(-c3ccccc3)cc2)c2ccccc2CCc2ccccc21)C(=O)O as the compound, how does the IC50 [1] read?
**A.** 1060 nM

**Q.** What about the IC50 (HCT-116 [2]) of the same compound?
**A.** 1300 nM

**Q.** Which results are given for N[C@@H](CSC1(c2ccc(C(F)(F)F)cc2)c2ccccc2Oc2ccccc21)C(=O)O?
**A.** IC50 [1]: > 20000 nM; IC50 (HCT-116 [2]): > 10000 nM

Reference: ChEMBL document CHEMBL3632570, “Structure-Guided Design of Novel l-Cysteine Derivatives as Potent KSP Inhibitors” (ACS Med Chem Lett, 2015)
